We go through 3 compounds from article PMC4938538, “Inhibition of Pig Phosphoenolpyruvate Carboxykinase Isoenzymes by 3-Mercaptopicolinic Acid and Novel Inhibitors” (PLoS ONE, 2016).

Changes are numbered by the printed parent chain.

In one data set the target is T1, wild type PEPCK-C (Sus scrofa, UniProt A0A4X1UM84).
T1 construct: made in house; host or cells: Escherichia coli BL21 (DE3)
T1 sequence (A0A4X1UM84 1-622): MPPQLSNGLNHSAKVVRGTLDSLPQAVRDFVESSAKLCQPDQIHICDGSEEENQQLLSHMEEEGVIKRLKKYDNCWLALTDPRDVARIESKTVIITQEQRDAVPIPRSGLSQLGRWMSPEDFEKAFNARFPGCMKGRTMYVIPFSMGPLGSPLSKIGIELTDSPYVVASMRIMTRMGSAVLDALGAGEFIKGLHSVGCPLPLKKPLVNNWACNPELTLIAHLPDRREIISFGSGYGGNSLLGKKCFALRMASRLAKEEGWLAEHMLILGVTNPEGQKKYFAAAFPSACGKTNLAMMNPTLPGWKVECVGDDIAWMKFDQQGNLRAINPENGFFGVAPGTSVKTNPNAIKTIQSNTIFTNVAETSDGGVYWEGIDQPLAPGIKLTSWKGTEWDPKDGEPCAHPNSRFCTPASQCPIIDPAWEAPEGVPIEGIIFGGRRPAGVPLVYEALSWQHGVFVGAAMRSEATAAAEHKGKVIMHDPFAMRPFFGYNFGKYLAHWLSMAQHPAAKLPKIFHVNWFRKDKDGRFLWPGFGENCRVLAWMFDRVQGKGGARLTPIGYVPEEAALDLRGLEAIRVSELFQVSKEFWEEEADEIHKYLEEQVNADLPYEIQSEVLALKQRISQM
Briefly: IC50 determination, PEPCK-C activity in the direction of OAA synthesis (coupled spectrophotometric assay with malate dehydrogenase). The data set is classed as biochemical, pig. Conditions: saturating substrate concentration. The protocol: PEPCK-C activity was measured in an UNICAM 500 spectrometer (UNICAM Analytical Systems, UK) with coupled spectrophotometric assays using pyruvate kinase and lactate dehydrogenase as auxiliary enzymes in PEP synthesis reaction and malate dehydrogenase in the reverse reaction.
Variable inhibitor concentrations of 0–200 μM were also used. Assays were initiated by PEPCK-C addition. Rates were calculated by measuring the decreasing slope of absorbance at 340 nm after subtracting the rate of spontaneous NADH oxidation.
3-MP inhibition assays were fitted in double reciprocal plots. To describe the mixed non-competitive inhibition, the double reciprocal equation can be written as: 1/v = Km/Vmax (1+[I]/Ki) 1/[S]+1/Vmax (1+[I]/αKi) (2)

In a further data set the target is T2, PEPCK-C 139Leu (Sus scrofa, UniProt A0A4X1UM84, M139L).
T2 construct: made in house; host or cells: Escherichia coli BL21 (DE3)
T2 sequence (A0A4X1UM84 1-622 M139L): T1 sequence (A0A4X1UM84 1-622) with M139L
Briefly: Near-UV circular dichroism spectra. The data set is classed as binding, pig. Conditions: 50 μM compound, 20 μM PEPCK-C (compound 1 also 150 μM, data not shown). The protocol: (§1) PEPCK-C was diluted to 20 μM in a 20 mM HEPES pH 7.4 buffer, containing 1 mM TCEP. 50 μM 3-MP, compound 1 or compound 2 were added to the PEPCK-C solution. Readings were performed at 25°C in a 0.1 cm cuvette from 320 to 250 nm in a Chirascan CD-spectrophotometer (Applied Photophysics, UK). CD spectra were calculated after subtracting the blank which contained all the components except PEPCK-C.

The target in data set [1] is T3, PEPCK-C 139Met (Sus scrofa, UniProt A0A4X1UM84).
T3 sequence (A0A4X1UM84 1-622): T1 sequence (A0A4X1UM84 1-622)
In words: Near-UV circular dichroism spectra. The data set is classed as binding, pig. More on the design: His-tag (cleaved yes); made in house; host or cells: Escherichia coli BL21 (DE3). Conditions: 50 μM compound, 20 μM PEPCK-C (compound 1 also 150 μM, data not shown). The protocol: as §1
In general terms: Circular dichroism is widely used to follow secondary structure.

Data set [2] concerns PEPCK-C 139Met. Briefly: Thermal-shift screening of chemical library (ANS fluorescence). The data set is classed as binding, pig. The following applies: 25 μM compound, 4 μM PEPCK-C. The protocol:
PEPCK-C effectors were identified from a chemical library using a screening procedure based on a thermal-shift assay. Potential protein effector compounds were dispensed into 96-well microplates. Each well contained 4 μM PEPCK-C in a 20 mM HEPES buffer pH 7.4, plus 1 mM TCEP, 100 μM ANS, 10% DMSO and either 1 or 5 chemical library compounds, each at a 25 μM concentration. […] 50 μL of mineral oil were added to each well to prevent evaporation. In a first screening round, 5 different compounds were present in each well. The binding of effectors to PEPCK-C was assessed by monitoring the thermal denaturation of the enzyme and identifying compounds inducing a stabilizing effect (increase in the unfolding temperature, Tm, compared to the free enzyme) in a FluoDia T70 High Temperature Fluorescence Microplate Reader (Photon Technology International, UK). To obtain Tm values, unfolding curves were fitted to Boltzmann function (Eq 1) using OriginPro 9.1 software. y(T) = A1−A2/1+exp(T−Tm/S)+A2 (1) where A1 and A2 are the asymptotic values of the signal in the pre- and post-transition region of the unfolding curve, respectively, and S is a parameter associated with the slope of the unfolding curve at the Tm and related to the unfolding enthalpy of the enzyme. […] In a second round, the compounds present in the positive wells were individually analyzed to identify the binders.

The nature of data set [3]: Solubility / precipitation in the enzymatic assay. The data set is classed as physicochemical. The protocol: Assays to calculate IC50 values were performed in the direction of OAA synthesis in 1 mL of a 100 mM HEPES buffer pH 7.4, containing 10 mM DTT, 0.2 mM MnCl2, 2 mM MgCl2, 2 mM GDP, 0.2 mM NADH, 2 mM PEP, 100 mM KHCO3 and 4 units of malate dehydrogenase. Variable inhibitor concentrations of 0–200 μM were also used. Assays were initiated by PEPCK-C addition. Rates were calculated by measuring the decreasing slope of absorbance at 340 nm after subtracting the rate of spontaneous NADH oxidation.

A word on the IC50: it is the concentration needed to halve the response being measured. Low readings indicate higher potency, high ones lower potency.

At wild type PEPCK-C, `O=C(O)c1ncccc1S` [3-MP, 3-mercaptopicolinic acid] displayed an IC50 of 65 ± 6 µM. For the same compound, the “Change of near-UV CD spectrum of the enzyme” value (“Change” for short) at PEPCK-C 139Leu and at PEPCK-C 139Met [1] was “modify the CD spectra of both isoenzymes” in each case.
Take `CC(=NNC(=S)NC1CCCCC1)c1sc(-c2cccs2)nc1C` [compound 1, N1-cyclohexyl-2-{1-[4-methyl-2-(2-thienyl)-1,3-thiazol-5-yl]ethylidene}hydrazine-1-carbothiamide]: the IC50 at wild type PEPCK-C was 134 ± 4 µM. Moreover, in the data set on PEPCK-C 139Met [2], the “Increase in Tm compared with controls” value is “around 8 °C”. The “Change” value on PEPCK-C 139Leu and on PEPCK-C 139Met [1] was “no clear differences in the enzyme CD spectra” each time. Besides, in data set [3], the “Solubility (in words)” value is reported as “poor solubility”.
Consider `Cn1nc(-c2ccc(C=NNC(=O)c3ccc(Cl)cc3Cl)s2)cc1C(F)(F)F` [compound 2, N'1-({5-[1-methyl-5-(trifluoromethyl)-1H-pyrazol-3-yl]-2-thienyl}methylidene)-2,4-dichlorobenzene-1-carbohydrazide], for which the IC50 against wild type PEPCK-C is 30 ± 2 µM. For the same compound, the “Increase in Tm compared with controls” value in the data set on PEPCK-C 139Met [2] is “around 8 °C”. The “Change” value at PEPCK-C 139Leu and at PEPCK-C 139Met [1] was “more markedly compound 2 modify the CD spectra of both isoenzymes” throughout. Moreover, in data set [3], the “Solubility (in words)” value is on record as “poor solubility”.
